# Source: ChEMBL document CHEMBL3885861, “Open TG-GATES”
# Species: Rattus norvegicus
# Test: Open TG-GATES - Regimen: Daily Repeat
# Format: toxicity, organism-based, Sprague-Dawley
# Set-up: regimen Daily Repeat, gender Male, age 6 weeks
# Settings: in vivo, po, 100 mg/kg, route gavage, dose level High; for APTT / Bas / Eos / Fbg / Hb / Ht / Lym / MCH / MCHC / MCV / Mono / Neu / PT / Plat / RBC / Ret / WBC: tissue Blood; for KIDNEY_L / KIDNEY_R / KIDNEY_TOTAL: tissue Kidney; for LIVER: tissue Liver; for A/G / ALP / ALT / AST / BUN / CRE / Ca / Cl / DBIL / GLC / IP / K / LDH / Na / PL / RALB / TBIL / TC / TG / TP / gamma-GTP: tissue Plasma
compound,measurement,setting,value
NC(=O)N/N=C/c1ccc([N+](=O)[O-])o1 [NITROFURAZONE],TERMINAL_BW,"72 h, time 3 day",206.6 g
same,APTT,"72 h, time 3 day",15 s
same,Bas,"72 h, time 3 day",0%
same,Eos,"72 h, time 3 day",1%
same,Fbg,"72 h, time 3 day",297 mg/dL
same,Hb,"72 h, time 3 day",12.7 g/dL
same,Ht,"72 h, time 3 day",38.8%
same,Lym,"72 h, time 3 day",83.6%
same,MCH,"72 h, time 3 day",21.5 pg
same,MCHC,"72 h, time 3 day",32.8%
same,MCV,"72 h, time 3 day",65.6 fL
same,Mono,"72 h, time 3 day",2.8%
same,Neu,"72 h, time 3 day",11.6%
same,PT,"72 h, time 3 day",14.6 s
same,Plat,"72 h, time 3 day",102.7 x10_4/uL
same,RBC,"72 h, time 3 day",593 x10_4/ul
same,Ret,"72 h, time 3 day",7%
same,WBC,"72 h, time 3 day",86.2 x10_2/uL
same,KIDNEY_L,"72 h, time 3 day",0.9 g
same,KIDNEY_R,"72 h, time 3 day",1 g
same,KIDNEY_TOTAL,"72 h, time 3 day",1.9 g
same,LIVER,"72 h, time 3 day",10.9 g
same,A/G,"72 h, time 3 day",0.9
same,ALP,"72 h, time 3 day",1305.8 IU/L
same,ALT,"72 h, time 3 day",41.4 IU/L
same,AST,"72 h, time 3 day",71.4 IU/L
same,BUN,"72 h, time 3 day",16 mg/dL
same,CRE,"72 h, time 3 day",0.2 mg/dL
same,Ca,"72 h, time 3 day",11 mg/dL
same,Cl,"72 h, time 3 day",104 meq/L
same,DBIL,"72 h, time 3 day",0.016 mg/dL
same,GLC,"72 h, time 3 day",176.4 mg/dL
same,IP,"72 h, time 3 day",7.8 mg/dL
same,K,"72 h, time 3 day",4.5 meq/L
same,LDH,"72 h, time 3 day",67.6 IU/L
same,Na,"72 h, time 3 day",141 meq/L
same,PL,"72 h, time 3 day",154.8 mg/dL
same,RALB,"72 h, time 3 day",2.6 g/dL
same,TBIL,"72 h, time 3 day",0.068 mg/dL
same,TC,"72 h, time 3 day",89.6 mg/dL
same,TG,"72 h, time 3 day",66.8 mg/dL
same,TP,"72 h, time 3 day",5.5 g/dL
same,gamma-GTP,"72 h, time 3 day",1 IU/L
same,TERMINAL_BW,"[…], time 7 day",222.5 g
same,TERMINAL_BW,"[…], time 14 day",223.7 g
same,TERMINAL_BW,"[…], time 28 day",311.4 g
same,APTT,"[…], time 7 day",16 s
same,Bas,"[…], time 7 day",0%
same,Eos,"[…], time 7 day",0.8%
same,Fbg,"[…], time 7 day",271.8 mg/dL
same,Hb,"[…], time 7 day",13.2 g/dL
same,Ht,"[…], time 7 day",38.8%
same,Lym,"[…], time 7 day",85.2%
same,MCH,"[…], time 7 day",20.6 pg
same,MCHC,"[…], time 7 day",34.1%
same,MCV,"[…], time 7 day",60.3 fL
same,Mono,"[…], time 7 day",2.5%
same,Neu,"[…], time 7 day",10.2%
same,PT,"[…], time 7 day",14.5 s
same,Plat,"[…], time 7 day",106.2 x10_4/uL
same,RBC,"[…], time 7 day",643 x10_4/ul
same,Ret,"[…], time 7 day",5.5%
same,WBC,"[…], time 7 day",113.2 x10_2/uL
same,APTT,"[…], time 14 day",15.4 s
same,Bas,"[…], time 14 day",0.2%
same,Eos,"[…], time 14 day",0.8%
same,Fbg,"[…], time 14 day",318.8 mg/dL
same,Hb,"[…], time 14 day",14.1 g/dL
same,Ht,"[…], time 14 day",41.5%
same,Lym,"[…], time 14 day",86.8%
same,MCH,"[…], time 14 day",19.7 pg
same,MCHC,"[…], time 14 day",34%
same,MCV,"[…], time 14 day",57.9 fL
same,Mono,"[…], time 14 day",2.6%
same,Neu,"[…], time 14 day",8.8%
same,PT,"[…], time 14 day",15.1 s
same,Plat,"[…], time 14 day",121 x10_4/uL
same,RBC,"[…], time 14 day",720 x10_4/ul
same,Ret,"[…], time 14 day",3.8%
same,WBC,"[…], time 14 day",108.8 x10_2/uL
same,APTT,"[…], time 28 day",16.6 s
same,Bas,"[…], time 28 day",0.2%
same,Eos,"[…], time 28 day",1%
same,Fbg,"[…], time 28 day",368.6 mg/dL
same,Hb,"[…], time 28 day",13.9 g/dL
same,Ht,"[…], time 28 day",41.3%
same,Lym,"[…], time 28 day",85.8%
same,MCH,"[…], time 28 day",19.4 pg
same,MCHC,"[…], time 28 day",33.5%
same,MCV,"[…], time 28 day",57.9 fL
same,Mono,"[…], time 28 day",2.8%
same,Neu,"[…], time 28 day",9.2%
same,PT,"[…], time 28 day",14.3 s
same,Plat,"[…], time 28 day",107.6 x10_4/uL
same,RBC,"[…], time 28 day",714.8 x10_4/ul
same,Ret,"[…], time 28 day",3.8%
same,WBC,"[…], time 28 day",116.7 x10_2/uL
same,KIDNEY_L,"[…], time 7 day",1.1 g
same,KIDNEY_R,"[…], time 7 day",1 g
same,KIDNEY_TOTAL,"[…], time 7 day",2.1 g
same,KIDNEY_L,"[…], time 14 day",1.1 g
same,KIDNEY_R,"[…], time 14 day",1.1 g
same,KIDNEY_TOTAL,"[…], time 14 day",2.2 g
same,KIDNEY_L,"[…], time 28 day",1.5 g
same,KIDNEY_R,"[…], time 28 day",1.5 g
same,KIDNEY_TOTAL,"[…], time 28 day",3 g
same,LIVER,"[…], time 7 day",11.4 g
same,LIVER,"[…], time 14 day",10.8 g
same,LIVER,"[…], time 28 day",14.2 g
same,A/G,"[…], time 7 day",0.9
same,ALP,"[…], time 7 day",1211 IU/L
same,ALT,"[…], time 7 day",32.2 IU/L
same,AST,"[…], time 7 day",56.8 IU/L
same,BUN,"[…], time 7 day",14 mg/dL
same,CRE,"[…], time 7 day",0.2 mg/dL
same,Ca,"[…], time 7 day",11 mg/dL
same,Cl,"[…], time 7 day",102.5 meq/L
same,DBIL,"[…], time 7 day",0.015 mg/dL
same,GLC,"[…], time 7 day",162.2 mg/dL
same,IP,"[…], time 7 day",7.4 mg/dL
same,K,"[…], time 7 day",3.9 meq/L
same,LDH,"[…], time 7 day",55 IU/L
same,Na,"[…], time 7 day",141.2 meq/L
same,PL,"[…], time 7 day",146.8 mg/dL
same,RALB,"[…], time 7 day",2.6 g/dL
same,TBIL,"[…], time 7 day",0.055 mg/dL
same,TC,"[…], time 7 day",87 mg/dL
same,TG,"[…], time 7 day",39.5 mg/dL
same,TP,"[…], time 7 day",5.6 g/dL
same,gamma-GTP,"[…], time 7 day",1 IU/L
same,A/G,"[…], time 14 day",0.9
same,ALP,"[…], time 14 day",975.2 IU/L
same,ALT,"[…], time 14 day",27.2 IU/L
same,AST,"[…], time 14 day",86.4 IU/L
same,BUN,"[…], time 14 day",17.8 mg/dL
same,CRE,"[…], time 14 day",0.2 mg/dL
same,Ca,"[…], time 14 day",10.5 mg/dL
same,Cl,"[…], time 14 day",104.8 meq/L
same,DBIL,"[…], time 14 day",0.02 mg/dL
same,GLC,"[…], time 14 day",150.2 mg/dL
same,IP,"[…], time 14 day",7.9 mg/dL
same,K,"[…], time 14 day",3.7 meq/L
same,LDH,"[…], time 14 day",99.2 IU/L
same,Na,"[…], time 14 day",144 meq/L
same,PL,"[…], time 14 day",138.6 mg/dL
same,RALB,"[…], time 14 day",2.7 g/dL
same,TBIL,"[…], time 14 day",0.078 mg/dL
same,TC,"[…], time 14 day",92.6 mg/dL
same,TG,"[…], time 14 day",34.6 mg/dL
same,TP,"[…], time 14 day",5.9 g/dL
same,gamma-GTP,"[…], time 14 day",1.2 IU/L
same,A/G,"[…], time 28 day",0.8
same,ALP,"[…], time 28 day",579.8 IU/L
same,ALT,"[…], time 28 day",21 IU/L
same,AST,"[…], time 28 day",58.6 IU/L
same,BUN,"[…], time 28 day",14.8 mg/dL
same,CRE,"[…], time 28 day",0.2 mg/dL
same,Ca,"[…], time 28 day",10 mg/dL
same,Cl,"[…], time 28 day",103.4 meq/L
same,DBIL,"[…], time 28 day",0.016 mg/dL
same,GLC,"[…], time 28 day",144.6 mg/dL
same,IP,"[…], time 28 day",7.5 mg/dL
same,K,"[…], time 28 day",3.6 meq/L
same,LDH,"[…], time 28 day",51.2 IU/L
same,Na,"[…], time 28 day",144.6 meq/L
same,PL,"[…], time 28 day",149.6 mg/dL
same,RALB,"[…], time 28 day",2.8 g/dL
same,TBIL,"[…], time 28 day",0.096 mg/dL
same,TC,"[…], time 28 day",104.2 mg/dL
same,TG,"[…], time 28 day",36 mg/dL
same,TP,"[…], time 28 day",6.2 g/dL
same,gamma-GTP,"[…], time 28 day",1.2 IU/L
